In brackets after ≈: the same amount, converted by molar mass.
Tested on: HL-60 (Homo sapiens)
Experiment: Antiallergic activity in Ca(2+)-stimulated differentiated human HL-60 cells assessed as inhibition of cys-leukotriene release after 6 days by ELISA
Details: HL-60, 144 h

Q: How did the IC50 turn out when `CC(C)=CCc1cc(/C=C/C(=O)OCCc2ccccc2)cc(CC=C(C)C)c1O` [ARTEPILLIN C PHENETHYL ESTER] was run?
A: Its IC50 is 0.094 µg/mL (≈ 0.232 µM).

Q: How did the IC50 turn out when `CC(C)=CCc1cc(/C=C/C(=O)O)cc(CC=C(C)C)c1O` [ARTEPILLIN] was run?
A: Its IC50 is 7 µg/mL (≈ 23.3 µM).

Q: How did the IC50 turn out when `CC(C)=CCc1cc(/C=C/C(=O)OCCc2ccccc2)ccc1OC(=O)CCc1ccccc1` [BACCHARIN PHENETHYL ESTER] was run?
A: Its IC50 is greater than 10 µg/mL.

Q: With `O=C(/C=C/c1ccc(O)c(O)c1)OCCc1ccccc1` [CAFFEIC ACID PHENETHYL ESTER] as the molecule, how does the IC50 read?
A: The IC50 was 0.068 µg/mL (≈ 0.239 µM).

Q: With `O=C(O)/C=C/c1ccc(O)c(O)c1` [CAFFEIC ACID] as the molecule, how does the IC50 read?
A: Its IC50 is 44 µg/mL (≈ 244 µM).

Q: `CC(C)=CCc1cc(/C=C/C(=O)OCCc2ccccc2)cc2c1OC(C)(C)C=C2` [CULIFOLIN PHENETHYL ESTER] was tested. Which IC50 did it give?
A: The IC50 was greater than 10 µg/mL.

Q: How did the IC50 turn out when `CC(C)=CCc1cc(/C=C/C(=O)O)cc2c1OC(C)(C)C=C2` [CULIFOLIN] was run?
A: Its IC50 is 1.6 µg/mL (≈ 5.36 µM).

Q: `CC(C)=CCc1cc(/C=C/C(=O)OCCc2ccccc2)ccc1O` [DRUPANIN PHENETHYL ESTER] was tested. Which IC50 did it give?
A: The IC50 was 0.2 µg/mL (≈ 0.594 µM).

Q: `CC(C)=CCc1cc(/C=C/C(=O)O)ccc1O` [DRUPANIN] was tested. Which IC50 did it give?
A: Its IC50 is 10.3 µg/mL (≈ 44.3 µM).

Q: For `COc1ccc(-c2oc3cc(O)cc(O)c3c(=O)c2O)cc1` [KAEMPFERIDE], which IC50 is on record?
A: The IC50 was 2 µg/mL (≈ 6.66 µM).

Q: `O=c1c(O)c(-c2ccc(O)cc2)oc2cc(O)cc(O)c12` [KAEMPFEROL] was tested. Which IC50 did it give?
A: Its IC50 is 2.4 µg/mL (≈ 8.38 µM).

Q: `CC(Cc1ccc(O)c(O)c1)C(C)Cc1ccc(O)c(O)c1` (centres undefined) [NORDIHYDROGUAIARETIC ACID] was tested. Which IC50 did it give?
A: Its IC50 is 0.08 µg/mL (≈ 0.265 µM).

Q: Which IC50 does the source give for `O=C1C[C@@H](c2ccccc2)Oc2cc(O)cc(O)c21` [PINOCEMBRIN] here?
A: The IC50 was 6.1 µg/mL (≈ 23.8 µM).

Q: With `CC(c1cc2ccccc2s1)N(O)C(N)=O` (centres undefined) [ZILEUTON] as the molecule, how does the IC50 read?
A: The IC50 was 0.04 µg/mL (≈ 0.169 µM).
